# Test results: a melting point compilation (Tetko et al.; mined from patent text by program, amines drawn as free bases though some values may be those of a salt)
row,melting point,SMILES
1,124 to 125 °C,C[C@@H](n1cnc2cc(N)c(F)cc2c1=O)[C@](O)(Cn1cncn1)c1ccc(F)cc1F
2,196 to 199 °C,CN1C(=O)CCC2(C)c3ccc(Sc4nccc5ccccc45)cc3CCC12 (centres undefined)
3,180 °C,CCN(CC)CCN1c2cc(Cl)ccc2S[C@H]2[C@@H](O)[C@H](O)[C@@H](COC(C)=O)O[C@H]21
4,234 to 236 °C,CCOC(=O)c1nc(N)sc1-c1cn2c(C)cccc2n1
5,123 to 124 °C,CC(C)(C)OC(=O)NCC1Cc2ccc(CC(=O)O)cc2C1 (centres undefined)
6,123 to 124 °C,Cc1cccc(C)c1C=Nc1cc(Cl)c(N=CN(C)C)c(Cl)c1
7,204 to 206 °C,COc1cc(-c2snnc2C)cc2oc(=O)c(C)c(C)c12
8,60 to 61 °C,COc1cccc2c1OC(C)C2=O (centres undefined)
9,185 to 186 °C,Clc1cccc(-c2n[nH]cc2-c2ccnc(NCCc3ccccc3)c2)c1
10,217 to 218 °C,CCOC(=O)Nc1cc2c3ccccc3n(Cc3ccccc3)c2cn1
11,223 °C,O=P(O)(O)C(O)(CCc1nn(-c2ccc(F)cc2)cc1-c1ccc(Cl)cc1)P(=O)(O)O
12,101 to 102 °C,Cc1nnc(N2N=C(c3ccc([N+](=O)[O-])cc3)c3cc4c(cc3CC2C)OCO4)s1 (centres undefined)
13,214 to 216 °C,CC1(C(=O)c2c[nH]c3ncc(-c4cccc(N5CCN(C(=O)CC#N)CC5)c4)nc23)CCCCC1
14,192 to 196 °C,NC(=O)NNCc1ccc(OCCc2coc(-c3ccccc3)n2)cc1
15,208 to 210 °C,CCN(Cc1cc(Br)ccc1N)c1ccc(C(N)=O)nn1
16,232 °C,CCCCN(C(=O)C(=O)O)c1cccc(NC(=O)C(=O)O)c1
17,159 to 161 °C,COc1ccccc1N1CCN(C(=O)Nc2cc3ccccc3nc2OC)CC1
18,131 to 132 °C,CN1Cc2ccccc2C(Oc2ccc(C#N)cc2)C1 (centres undefined)
19,70 °C,COC(=O)C(C)Oc1ccc(Oc2ccc3cc(Cl)cc(Cl)c3n2)cc1 (centres undefined)
20,164 to 166 °C,CC(C)=CCOc1ccc(C(=O)C=Cc2ccccc2)c(O)c1
21,197 to 199 °C,CCCOc1ccc(S(=O)(=O)N2CCC(C(=O)OCC)CC2)cc1-c1nc2cc(N)c(N)cc2c(=O)[nH]1
22,124 to 125 °C,O=C(N[C@@H](CCC1CCCCC1)[C@@H](O)[C@@H](O)CN1CCOCC1)OCc1ccccc1
23,183 to 185 °C,CCC(C)Oc1ccccc1-c1ncc(C(N)=O)c(=O)[nH]1 (centres undefined)
24,63.5 to 64.5 °C,CCCCc1nnc(-c2ccncc2)n1Cc1ccc(N)cc1

row,melting point,SMILES
1,125 °C,Cc1nn(-c2cnccn2)c(-c2ccccc2)c1CC(=O)O
2,53 to 55 °C,CC(=O)Nc1cc(SCC(C)C)ccc1[N+](=O)[O-]
3,57 to 61 °C,CCOC(=O)CCCCCCOc1ccc(OCc2ccccc2)cc1
4,114 °C,CCOC(=O)c1cnc2c(F)c(F)ccc2c1Cl
5,115 to 118 °C,CC(C)C[C@H](NC(=O)OCc1ccco1)C(=O)N[C@@H](Cc1ccccc1)C(=O)CSCc1ccco1
6,135 to 137 °C,Oc1cc2c(cc1O)OCC(c1ccc(F)cc1)C2 (centres undefined)
7,115 to 116 °C,COCCNC(=O)c1cc(C)nc(-c2cccc3cc(Cc4cccc(C(F)(F)F)c4)sc23)c1
8,157 to 159 °C,CCCNC(=O)c1ccc(-c2ccc3nnn(Cc4ccc5ncccc5c4)c3n2)cc1F
9,138 to 140 °C,CCOC(=O)c1c(C(=O)OCC)c(-c2ccc(OC)c(OC)c2)c2c(OC)c(OC)c(OC)cc2c1O
10,58 to 60 °C,CC(C)(C)OC(=O)Nc1cc(N2CCC(O)CC2)c(I)cc1[N+](=O)[O-]
11,63 to 64.5 °C,COC(=O)CCc1cc(C(C)(C)C)c(O)c(C(C)(C)C)c1
12,150 to 152 °C,CCC1=C(c2cccc(C(F)(F)F)c2)n2ncc(C#N)c2N(C(=O)CCl)C1
13,77 to 78 °C,CC1(C)CCCC(C)(C)N1CCOC(=O)C(Cc1ccccc1)(Cc1ccccc1)C(=O)OCCN1C(C)(C)CCCC1(C)C
14,280 to 282 °C,CC1(N)CCN(c2c(F)c(F)c3c(=O)c(C(=O)O)cn(C4CC4)c3c2F)C1 (centres undefined)
15,260 to 263 °C,CCOCCn1cc2c(C3C(=O)Nc4ccc(Br)cc43)nc(Cl)nc2n1 (centres undefined)
16,191 to 192 °C,O=C(O)C1c2ccccc2COc2ccc(I)cc21 (centres undefined)
17,121 to 123 °C,O=C(O)CCCCCCCn1cc(-c2ccccc2)c(-c2ccccc2)nc1=O
18,68 to 69 °C,CSc1nc(C#N)c(I)c(C(F)(F)F)n1
19,200 °C,COc1ccc(CN(C)CC=Cc2ccc(NC(=O)c3cccc4c(=O)c5cccc(OC)c5[nH]c34)cc2)cc1OC
20,240 to 242 °C,Cc1nnc2ccc(-c3ccc(N)c(C(F)(F)F)c3)nn12
21,142 to 143 °C,COc1ccc2c(c1)SC(CCBr)C(=O)N2 (centres undefined)
22,104 °C,CN1CCC(c2c[nH]c3ccc(NC(=O)C4CCC4)nc23)CC1
23,86 to 87 °C,CN1CCC=C(c2nnn(C)n2)C1
24,85 to 87 °C,CCCc1cc2ccc(CC(=O)O)cc2[nH]1

row,melting point,SMILES
1,194 °C,O=C(c1ccc(-c2ccncc2)nc1)N1CCN(S(=O)(=O)c2ccc3cc(Br)ccc3c2)CC1
2,133 to 134 °C,C=CCO/N=C(\C(=O)OC)c1csc(N)n1
3,85.2 to 88.1 °C,CC(=O)c1c(C)nn2ccccc12
4,89 to 90 °C,CCNC(=C[N+](=O)[O-])NCCSCc1csc(CN(C)C)n1
5,105 to 107 °C,OCC(O)C1OC(Sc2ccccc2)C(O)C1O (centres undefined)
6,203 to 205 °C,CC(=O)OCC(=O)C1=CCC2C3CCC4=CC(=O)C=CC4(C)C3C(O)CC12C (centres undefined)
7,195 to 196 °C,O=C(NCc1ccc(Cl)cc1)c1cn(N2CCOCC2)c2ccc(CN3CCOCC3)cc2c1=O
8,64 to 65 °C,CS(=O)(=O)c1ccc(-n2nc(C(F)(F)F)cc2-c2ccc(Br)cc2)cc1F
9,46 to 47 °C,Cc1ccn(-c2ccc(Cl)c(Cl)c2)n1
10,116 to 117 °C,COC(=O)c1cc2cc(OCCCl)ccc2s1
11,> 300 °C,NS(=O)(=O)c1cc2nc(O)c(O)nc2c2ccccc12
12,86 to 87 °C,CC(=O)Oc1c(C)c(C)c2c(c1C)C(c1ccc(F)cc1)C(C)(C)O2 (centres undefined)
13,170 to 171 °C,COCC(=O)Nc1c(Cl)c(C)cc2nc(OC)c(OC)nc12
14,196 °C,O=C(Nc1ccc(C[C@H](NS(=O)(=O)NCC2CCCCC2)C(=O)O)cc1)c1c(Cl)cncc1Cl
15,118 to 119 °C,CC(=O)OC1C(=O)NC1c1ccco1 (centres undefined)
16,78 to 82 °C,Clc1ccc(N2CCN=C2C(Cn2cncn2)c2ccccc2)c(Cl)c1 (centres undefined)
17,198 to 199 °C,CC(O)COc1ccc2c(c1)c(-c1cc3cccnc3[nH]1)cn2C (centres undefined)
18,56 to 58 °C,Cc1cc(Cl)cc2c1OCCCC2=O
19,70 to 72 °C,O=C(NCCOCc1cccc(Cl)c1)c1c(Cl)cccc1Cl
20,210 to 211 °C,CC1CC(=O)c2c(C(=O)O)c[nH]c2C1 (centres undefined)
21,130 °C,CCOC(=O)c1c(O)c2cc(C)ccc2n(Cc2ccc(F)cc2)c1=O
22,> 290 °C,COC(=O)C(=O)c1c[nH]c2c1ccc1c3ccccc3[nH]c12
23,147 to 150 °C,O=C(NC[C@H]1CN(c2ccc3c(c2)CCCc2cn[nH]c2-3)C(=O)O1)C(F)F
24,166 °C,CN(C)CCN1CCC(Nc2nc3ccccc3n2Cc2ccc(F)cc2)CC1

row,melting point,SMILES
1,98 to 103 °C,CC(C)C[C@@H](C=O)NC(=O)[C@H](Cc1c[nH]cn1)NC(=O)[C@H](Cc1ccccc1)NC(=O)CCCc1ccccc1
2,225 to 227 °C,Cc1cccc(-c2c(CC(=O)Nc3ccc(F)cc3C(F)(F)F)c(=O)oc3cc4c(cc23)CCC4O)c1 (centres undefined)
3,107 to 109 °C,O=S1(=O)NCN(CCF)c2cc(F)ccc21
4,107 to 109 °C,CCCCCCCCCCCCCCOc1ccc(CN(C(=O)NC)c2cccc(COC(=O)NC)c2)cc1
5,184 to 186 °C,C=CCONC(=O)c1nc(-c2ccc(Cl)c(OC)c2F)c(F)c(N)c1Cl
6,134 to 136 °C,COC(=O)c1cc(=O)c(OCc2ccccc2)co1
7,108 to 110 °C,N#Cc1cccnc1N1CCN(CC(=O)Nc2cc(F)cc(C(F)(F)F)c2)CC1
8,182 to 184 °C,Cc1c(OCCn2ccnc2)ccc2c1CC/C(=C\c1cccs1)C2=O
9,233 to 235 °C,O=C(O)CCc1ccc2c(c1)CCc1ccc(C(=O)O)cc1S2
10,172 °C,CN(C)c1ccc(C2=NC[C@@H](OC(=O)Nc3ccccc3)[C@H](c3ccccc3)O2)cc1 (racemic)
11,286 to 290 °C,CN1CC(=O)OC2CCN(C(=O)c3ccc(NC(=O)c4ccccc4Cl)cc3)c3ccccc3C21 (centres undefined)
12,182 to 184 °C,Cn1c(CCN2CCC(c3ccccc3)CC2)nc2cc(Br)c3ccccc3c21
13,88 to 91 °C,CCCn1c(=O)c2c(ncn2CC(O)CO)n(CCC)c1=O (centres undefined)
14,140 to 141 °C,COc1ccc(CS[C@H]2C[C@@H](C(=O)N3CCN(CCO)CC3)N(C(=O)OCc3ccc([N+](=O)[O-])cc3)C2)cc1
15,304 to 306 °C,COc1ccc(-n2cc(C#N)c(=O)[nH]c2=O)cc1
16,127 to 130 °C,CN1CCN(Cc2ccc(NC(=O)c3cccc4cc(Oc5cc(N)ncn5)ccc34)cc2C(F)(F)F)CC1
17,166 to 167 °C,CC(C)Oc1ccc(C2CCc3cccc(C(=O)O)c3N2)cc1 (centres undefined)
18,206 °C,Cc1cc2nc3ccccc3sc-2c(Cl)c1=O
19,174 to 176 °C,CCOC(=O)C1(Sc2ccccc2[N+](=O)[O-])Cc2ccc(N(C)C)cc2NC1=O (centres undefined)
20,247 to 248 °C,Cn1c(=O)c(-c2c(Cl)cccc2Cl)cc2cnc(Nc3cccnc3)nc21
21,98.5 to 100 °C,CCOC(=O)C1=Cc2cc(Br)c(F)cc2OC1C(F)(F)F (centres undefined)
22,194 to 196 °C,COc1cn(-c2ccc(I)cc2F)nc(-c2ccnn2-c2ccccc2)c1=O
23,92 °C,O=S(CC1CO1)c1ncc(Cl)cn1 (centres undefined)
24,113 to 114 °C,COc1ccc2c(c1)c(CC(=O)OCc1ccc(Cl)cc1)c(C)n2C(=O)c1ccc(Cl)cc1

row,SMILES,melting point
1,CCOC(=O)CCCN(C(=O)CCC1CCCCC1)C1N=C(c2ccccc2)c2ccccc2N(C)C1=O (centres undefined),103 to 105 °C
2,N#Cc1ccc(N2CCC(CO)CC2)c2ccccc12,135 to 136 °C
3,COc1ccc2c(CCN3CC=C(c4c[nH]c5cc(F)ccc45)CC3)coc2c1,181 °C
